Values joined by “and” are separate entries in the source; they are usually repeats but may differ in a detail not shown here. Equal entries are not always repeated. Where two headings read alike, the source gives them in different places.
Tests used:
[1] = Observations and adverse reactions after intraperitoneal administration; type: in vivo, CD-1 mice; conditions: IP 50 mg/kg in sterile water for injection
Experimental: (§1) In this study, the brain-to-plasma ratio of Compound 2 and Compound 3 was evaluated after intraperitoneal dosing in fasted male CD-1 mice. Test compounds were dosed at 50 mg/kg in sterile water for injection. Plasma and brain homogenate levels were determined at 1 and 3 hours post dose by LC-MS/MS.

[2] = Determination of the brain-to-plasma ratio after intraperitoneal administration (plasma and brain homogenate levels by LC-MS/MS); type: in vivo, male CD-1 mice; design: Brain Tissue Homogen. Conc / Brain Tissue Conc: unit not given here
Experimental: as §1
The dosing solution was diluted in triplicate into mouse plasma and analyzed in parallel with the study samples. The nominal dosing solution concentration was used in all calculations. All concentrations are expressed as […] of the free drug. All data are expressed as ng/mL (equivalent to ng/g for calculation of brain:plasma ratio) of the free drug. Samples that were below the limit of quantitation were not used in the calculation of averages.
Brain-to-plasma ratios were determined by dividing the brain concentration in ng/g by the plasma concentration in ng/g.
Brain samples were homogenizcd with a Virsonic 100 ultrasonic homogenizer. Each brain sample was first weighed, and then an appropriate volume of 20:80 methanol:water was added to make a 4 mL/1 gram sample. Samples were then homogenized on ice, and stored frozen until analysis.
Standards samples were prepared in either CD-1 Mouse plasma containing K2EDTA as an anticoagulant or CD-1 mouse brain homogenate. Working solutions (200 μg/mL and/or 20 μg/mL for each test compound) was prepared in 50:50 ACN:water. Then, a nine-point calibration curve was prepared at concentrations of 2000, 1500, 1000, 500, 100, 50, 20, 10, and 5 ng/mL of each test compound by serial dilution; or for a high-sensitivity method, another nine point calibration curve was prepared at concentrations of 200, 150, 100, 50, 10, 5, 2, 1, and 0.5 ng/mL of each test compound by serial dilution. Standard samples were treated identically to the study samples.
Plasma and brain homogenate samples were extracted via acetonitrile precipitation on a Tomtec Quadra 96-Model 320 liquid handling system in a 96-well plate format.

[3] = IP 50 mg/kg, 1.0 hr post dose, individual mouse, 50 mg/kg
[4] = IP 50 mg/kg, 3.0 hr post dose, individual mouse, 50 mg/kg
[5] = male, CD-1, mouse, brain/plasma, ip, 50 mg/kg, 1 hour post dose, mean of mice, read-out: Average B:P Ratio

Structure (SMILES)	adverse effects after intraperitoneal administration [1]	B:P Ratio [2, 3]	Brain Tissue Conc [2, 3]	Plasma Conc [2, 3]	Brain Tissue Homogen. Conc ([2]; IP 50 mg/kg, 3.0 hr post dose, individual mouse)	Plasma Conc [2, 4]	concentration at 3 h ([2]; male, CD-1, mouse, brain, ip, 50 mg/kg, 3 hours post dose, read-out: brain tissue concentrations (BLOQ)) [ng/mL]	Kp at 1 h [2, 5]	Average B:P Ratio ([2]; IP 50 mg/kg, 1 hour post dose, mean of mice, 50 mg/kg)	B:P Ratio ([2]; IP 50 mg/kg, 1.0 hr post dose, individual mouse)	Average B:P Ratio ([2]; IP 50 mg/kg, 3 hours post dose, mean of mice, 50 mg/kg)	B:P Ratio [2, 4]	Kp at 1 h ([2]; male, CD-1, mouse, brain/plasma, ip, 50 mg/kg, 1.0 hr post dose, individual mouse, read-out: B:P Ratio)	Kp at 3 h ([2]; male, CD-1, mouse, brain/plasma, ip, 50 mg/kg, 3 hours post dose, mean of mice, read-out: Average B:P Ratio)	concentration at 1 h ([2]; male, CD-1, mouse, plasma, ip, 50 mg/kg, 1.0 hr post dose, individual mouse, read-out: Plasma Conc) [ng/mL]
COCCNC(=O)c1cc(C(=O)NCCOC)cc(C(=O)NCCOC)c1 [Compound 2, N^1,N^3,N^5-tris(2-methoxyethyl)benzene-1,3,5-tricarboxamide]	No adverse effects were observed	0.01 and 0.1	4.19	675 ng/mL and 30.7 ng/mL and 41.8 ng/mL	BLQ	3.13 ng/mL and 2.22 ng/mL and 16.5 ng/mL	< 0.5	0.056							
COCCN(C)C(=O)c1cc(C(=O)N(C)CCOC)cc(C(=O)N(C)CCOC)c1 [Compound 3, N^1,N^3,N^5-tris(2-methoxyethyl)-N^1,N^3,N^5-trimethylbenzene-1,3,5-tricarboxamide]	No adverse effects were observed			3010 ng/mL and 2440 ng/mL		17.2 ng/mL and 36 ng/mL and 71.7 ng/mL		0.038 ± 0.004	0.038	0.04	0.525	0.78 and 0.24 and 0.55	0.04	0.525 ± 0.275	2770

Source: patent US9828332B2, “Non-peptide BDNF neurotrophin mimetics” (PHARMATROPHIX, INC., priority 2013, dated 2017)
